# From patent US10709750B2, “Female menopause alleviation use of composition containing composite extract of red clover and pomegranate as active ingredient” (HLSCIENCE CO., LTD, priority 2014, dated 2020)
# Marks after values point to notes of the source that are not given here.
# Assays:
# Type in all cases: in vivo
# Details in all cases: 120 mg/kg po; estradiol 0.03 μg/head sc
# OVX ddY mice [1] = assay: Femur bone strength (failure load) in OVX ddY mice
# Procedure: Bone strength is measured through failure load (FL).
# Optimal amounts of red clover extract or pomegranate extract were suspended or dissolved in sterile distilled water, and orally administered at a dose of 10 ml/kg once daily for 84 days from 28 days after OVX. That is, red clover extract and pomegranate extract single formula, and red clover:pomegranate extract 1:1, 1:2, 1:4, 1:6, 1:8, 2:1, 4:1, 6:1 and 8:1 (g/g) mixture 120 mg/kg were each orally administered for 84 days, and sham control and OVX control were orally administered with only sterile distilled water as a vehicle at the same dose for the same period instead of the test material, and according to earlier researchers' method [Chiba et al., 2003; Murakami et al., 2007; Tousen et al., 2011], 0.03 ug of 17β-estradiol (Sigma-Aldrich, St. Louise, Mo., USA) was dissolved in 0.2 ml of sterile saline, and subcutaneously administered to back skin at a dose of 0.2 ml/mouse (0.03 μg/head/day) once daily for 84 days from 28 days after OVX surgery (Table 15, FIG. 18). The administration dose of mixed formula was set higher 12 times than a human clinical dose of 600 mg, i.e., 600 mg/60 kg)×12=120 mg/kg, in consideration of a body surface area of mouse, and the dose of each of red clover extract and pomegranate extract single formula was also set as 120 mg/kg for direct comparative evaluation of efficacy. […]
# OVX ddY mice [2] = assay: Serum biochemistry in OVX ddY mice
# Procedure: (§1) Optimal amounts of red clover extract or pomegranate extract were suspended or dissolved in sterile distilled water, and orally administered at a dose of 10 ml/kg once daily for 84 days from 28 days after OVX. That is, red clover extract and pomegranate extract single formula, and red clover:pomegranate extract 1:1, 1:2, 1:4, 1:6, 1:8, 2:1, 4:1, 6:1 and 8:1 (g/g) mixture 120 mg/kg were each orally administered for 84 days, and sham control and OVX control were orally administered with only sterile distilled water as a vehicle at the same dose for the same period instead of the test material, and according to earlier researchers' method [Chiba et al., 2003; Murakami et al., 2007; Tousen et al., 2011], 0.03 ug of 17β-estradiol (Sigma-Aldrich, St. Louise, Mo., USA) was dissolved in 0.2 ml of sterile saline, and subcutaneously administered to back skin at a dose of 0.2 ml/mouse (0.03 μg/head/day) once daily for 84 days from 28 days after OVX surgery (Table 15, FIG. 18). The administration dose of mixed formula was set higher 12 times than a human clinical dose of 600 mg, i.e., 600 mg/60 kg)×12=120 mg/kg, in consideration of a body surface area of mouse, and the dose of each of red clover extract and pomegranate extract single formula was also set as 120 mg/kg for direct comparative evaluation of efficacy.
# (§2) More specifically, the anti-obesity and estrogen-like effects were tested as follows. The body weights on OVX surgery date, 1 day before administration (27 days after OVX), the start date of administration, and from the first day after start of administration up to the time of final sacrifice at least once a week were each recorded, and change amounts of body weights, i.e., body weight gains, for the recovery period after OVX (menopausal disorder induction period) and 12 weeks after start of administration were measured. Food consumption (1, 3, 7, 28, 56 and 83 days after start of administration), serum estradiol levels, amounts of body fat and abdominal fat, weights of abdominal fat pad and uterus, histological changes of uterus and abdominal fat pads (changes in abdominal fat pad thickness and mean adipocyte diameter, thickness of uterus total, epithelium and mucosa, and percentage of uterine glands in the mucosa (FIG. 19) were observed.
# (§3) Furthermore, to ascertain the protective effect against fatty liver, testing was conducted as follows. Liver weight, serum AST and ALT levels, and histological changes of liver (changes in mean hepatocyte diameter and region with hepatic degeneration showing fatty change) were observed.
# The hyperlipidemia inhibitory effect was ascertained through changes in serum TC, LDL, HDL and TG levels.
# The osteoporosis reduction effect was ascertained through histological changes in wet, dry and ash weights of femurs, BMD (FIG. 20), bone strength (FIG. 21), serum osteocalcin and bALP levels, bone mass and structure (trabecular bone mass, trabecular bone number, thickness and length, and cortical bone thickness), and bone resorption (osteoclast cell number and osteoclast cell surface (OS/BS)).
# OVX ddY mice [3] = assay: Body weight and food consumption in OVX ddY mice, once daily for 84 days
# Procedure: That is, the experiment was performed after dividing into sterile distilled water 10 ml/kg administered vehicle control after sham surgery (hereinafter sham control), sterile distilled water 10 ml/kg administered vehicle control after OVX surgery (hereinafter OVX control), pomegranate extract single formula 120 mg/kg administered group (PCP) after OVX, and 9 types of red clover:pomegranate extract mixed formula (g/g) administered groups after OVX surgery including red clover:pomegranate extract 1:1 (g/g) mixed formula 120 mg/kg administered group after OVX surgery (1-1), red clover:pomegranate extract 1:2 (g/g) mixed formula 120 mg/kg administered group after OVX surgery (1-2), red clover:pomegranate extract 1:4 (g/g) mixed formula 120 mg/kg administered group after OVX surgery (1-4), red clover:pomegranate extract 1:6 (g/g) mixed formula 120 mg/kg administered group after OVX surgery (1-6), red clover:pomegranate extract 1:8 (g/g) mixed formula 120 mg/kg administered group after OVX surgery (1-8), red clover:pomegranate extract 2:1 (g/g) mixed formula 120 mg/kg administered group after OVX surgery (2-1), red clover:pomegranate extract 4:1 (g/g) mixed formula 120 mg/kg administered group after OVX surgery (4-1), red clover:pomegranate extract 6:1 (g/g) mixed formula 120 mg/kg administered group after OVX surgery (6-1), and red clover:pomegranate extract 8:1 (g/g) mixed formula 120 mg/kg administered group after OVX surgery (8-1).
# as §1
# That is, all experimental animals except sham control were randomly selected and underwent bilateral ovariectomy to induce estrogen deficient menopausal disorder. On the other hand, in sham operated group, both ovaries were detected by the same method but incisions were not made, and abdominal cavities were closed again. At 27 days after surgery, based on body weights (OVX mice: 30.71±1.65 g, 28.0-35.1 g; sham operated mice: 26.99±1.46 g, 24.4-28.7 g), 8 mice per group were selected from all experimental animals including sham operated group, and used for experiments.
# More specifically, the anti-obesity and estrogen-like effects were tested as follows. The body weights on OVX surgery date, 1 day before administration (27 days after OVX), the start date of administration, and from the first day after start of administration up to the time of final sacrifice at least once a week were each recorded, and change amounts of body weights, i.e., body weight gains, for the recovery period after OVX (menopausal disorder induction period) and 12 weeks after start of administration were measured. […]
# OVX ddY mice [4] = assay: Abdominal fat pad, uterus and liver weights in OVX ddY mice
# Procedure: as §1, §2, §3
# OVX ddY mice [5] = assay: Histology of abdominal fat pad, uterus and liver in OVX ddY mice
# Procedure: as §1, §2, §3
smiles,measurement,setting,value
"C[C@]12CC[C@@H]3c4ccc(O)cc4CC[C@H]3[C@@H]1CC[C@@H]2O [Estradiol, 17β-estradiol]",Change in bone strength of femur mid-shaft region vs OVX control,OVX ddY mice [1],61.41%
same,Change in serum AST level vs OVX control (first series),OVX ddY mice [2],−33.98%
same,Change in serum AST level vs OVX control (second series),OVX ddY mice [2],−31.58%
same,Change in serum HDL level vs OVX control,OVX ddY mice [2],52.09%
same,Change in serum LDL level vs OVX control,OVX ddY mice [2],−26.87%
same,Change in serum TC level vs OVX control,OVX ddY mice [2],−25.94%
same,Change in serum TG level vs OVX control,OVX ddY mice [2],−34.80%
same,Change in serum bALP level vs OVX control,OVX ddY mice [2],39.72%
same,Change in serum estradiol level vs OVX control,OVX ddY mice [2],185.69%
same,Change in serum osteocalcin level vs OVX control,OVX ddY mice [2],−31.95%
same,Serum ALT,OVX ddY mice [2],52.00 ± 10.03^ac U/L
same,Serum AST,OVX ddY mice [2],107.13 ± 12.43^ac U/L
same,Serum HDL,OVX ddY mice [2],72.63 ± 11.04^ac mg/dl
same,Serum LDL,OVX ddY mice [2],133.00 ± 10.54^ac mg/dl
same,Serum TC,OVX ddY mice [2],132.75 ± 21.06^ac mg/dl
same,Serum TG,OVX ddY mice [2],97.88 ± 18.16^ac mg/dl
same,Body weight at sacrifice,OVX ddY mice [3],35.68 ± 2.19^ab g
same,"Body weight gain, treatment [D-C]",OVX ddY mice [3],6.96 ± 1.21^fg
same,Change in body weight gain for duration of administration vs OVX control,OVX ddY mice [3],−52.56%
same,"Change in food consumption vs OVX control, day 1",OVX ddY mice [3],0.87%
same,"Change in food consumption vs OVX control, day 3",OVX ddY mice [3],−5.24%
same,"Change in food consumption vs OVX control, day 7",OVX ddY mice [3],−13.04%
same,"Change in food consumption vs OVX control, day 28",OVX ddY mice [3],−16.34%
same,"Change in food consumption vs OVX control, day 56",OVX ddY mice [3],−20.01%
same,"Change in food consumption vs OVX control, day 83",OVX ddY mice [3],−27.82%
same,"Food consumption, day 1",OVX ddY mice [3],11.49 ± 1.41^a g/24 hrs/rat
same,"Food consumption, day 3",OVX ddY mice [3],10.53 ± 0.93^a g/24 hrs/rat
same,"Food consumption, day 7",OVX ddY mice [3],9.82 ± 0.93^ac g/24 hrs/rat
same,"Food consumption, day 28",OVX ddY mice [3],9.52 ± 1.01^ab g/24 hrs/rat
same,"Food consumption, day 56",OVX ddY mice [3],10.24 ± 0.98^ab g/24 hrs/rat
same,"Food consumption, day 83",OVX ddY mice [3],10.65 ± 1.54^de g/24 hrs/rat
same,Abdominal fat pad absolute wet-weight,OVX ddY mice [4],0.600 ± 0.536^bc g
same,Abdominal fat pad relative wet-weight,OVX ddY mice [4],1.656 ± 1.432^bc % of body weight
same,Change in abdominal fat pad absolute weight vs OVX control,OVX ddY mice [4],−82.20%
same,Change in abdominal fat pad relative weight vs OVX control,OVX ddY mice [4],−78.86%
same,Change in absolute liver weight vs OVX control,OVX ddY mice [4],5.37%
same,Change in relative liver weight vs OVX control,OVX ddY mice [4],27.16%
same,Change in uterus absolute weight vs OVX control,OVX ddY mice [4],288.64%
same,Change in uterus relative weight vs OVX control,OVX ddY mice [4],372.56%
same,Liver absolute wet-weight,OVX ddY mice [4],1.324 ± 0.073 g
same,Liver relative wet-weight,OVX ddY mice [4],3.724 ± 0.307^c % of body weight
same,Uterus absolute wet-weight,OVX ddY mice [4],0.107 ± 0.040^ac g
same,Uterus relative wet-weight,OVX ddY mice [4],0.303 ± 0.124^ac % of body weight
same,Change in abdominal fat pad thickness vs OVX control,OVX ddY mice [5],−52.23%
same,Change in mean adipocyte diameter vs OVX control,OVX ddY mice [5],−48.06%
same,Change in mean hepatocyte diameter vs OVX control,OVX ddY mice [5],−42.21%
